“And” between values parts separate entries of the source, which are not always exact repeats. Identical values can stand only once.

One data set concerns FAP. The following applies: cited from earlier work.
In a further data set the test system is DPPs. The following applies: cited from earlier work.
For the next data set, the system named is PREP. The settings on record: cited from earlier work.
Data set [1] can be described thus: In vivo stability study (radio-HPLC of plasma and urine). Further details: species or system mice. The settings on record: 15 min pi; for fraction of tracer remaining intact in plasma / fraction of tracer remaining intact in urine: male NRG mice, n = 3. Here is the method:
In vivo stability studies were performed using healthy (non-tumor-bearing) male NRG mice following previously reported procedures. Briefly, [^68Ga]Ga-SB02055 (6.32 ± 0.16 MBq) and [^68Ga]Ga-SB04028 (9.90 ± 0.26 MBq) were injected via the lateral caudal vein into the mice (n = 3). At 15 min pi, the mice were sedated and euthanized, and urine and blood were collected. The blood was processed to obtain plasma by adding 0.5 mL of acetonitrile to 0.5–0.8 mL of whole blood, then vortexing and centrifuging the resulting mixture on a benchtop mini-centrifuge (Fisherbrand™ Mini-Centrifuge 100–240 V, 50/60 Hz Universal Plug) for 20 min. The supernatant was collected and filtered to give the blood plasma. The plasma and urine samples were analyzed via radio-HPLC by using the same conditions as those used for quality control of these ^68Ga-labeled radioligands.

In data set [2] the test system is HEK293T:hFAP tumor xenograft. In words: PET/CT imaging. The following applies: 1 h pi; for tumor on PET/CT image: HEK293T:hFAP tumor xenograft, unblocked. The class given is in vivo, mice. Here is the method: (§1) Imaging and biodistribution studies were performed using immunodeficient male NRG (NOD.Cg-Rag1tm1Mom Il2rgtm1Wjl/SzJ) mice following previously reported procedures. All experiments were conducted according to the guidelines established by the Canadian Council on Animal Care and approved by Animal Ethics Committee of the University of British Columbia. The mice were subcutaneously inoculated with 7.5 × 10^6 HEK293T:hFAP cells in the left dorsal flank. When the tumors grew to 6–8 mm in diameter, the mice were used for PET/CT imaging and biodistribution studies.
The PET/CT imaging experiments were carried out using a Siemens Inveon micro PET/CT scanner (Knoxville, TN, USA). Tumor-bearing mice were injected with ~4 to 6 MBq of ^68Ga-labeled tracer through a lateral caudal tail vein under 2.5% isoflurane in oxygen anesthesia, followed by recovery and free roaming in their cage during the uptake period. A 10 min localization CT scan was acquired using 3 overlapping positions to cover the entire mouse. The CT scan was used for the attenuation and scatter correction, and anatomical localization. A list mode acquisition was then performed for 15 min at 1 h pi with the mouse under isoflurane sedation. The images were reconstructed using 3D OSEM/MAP iterative methods.
(§2) For blocking studies, HEK293T:hFAP tumor-bearing mice were co-injected [^68Ga]Ga-SB04028 with an excess of FAPI-04 (0.5 mg/mouse) as a competitor. Imaging and biodistribution studies were performed at 1 h pi similar to the unblocked mice.

In data set [3] the test system is HEK293T:hFAP tumor-bearing mice. In words: Ex vivo biodistribution study. In kind it is in vivo. The settings on record: 1 h pi; for Adrenal Glands uptake / Blood uptake / Bone uptake / Brain uptake / Fat uptake / Heart uptake / Kidneys uptake / Large Intestines uptake / Liver uptake / Lungs uptake / Muscle uptake / Pancreas uptake / Small Intestine uptake / Spleen uptake / Stomach uptake / Testes uptake / Thyroid uptake / Tumor uptake / Tumor/Blood uptake ratio / Tumor/Bone uptake ratio / Tumor/Kidney uptake ratio / Tumor/Muscle uptake ratio: n = 4. The procedure: as §1
For the biodistribution studies, the mice were injected with ~1–2 MBq of the ^68Ga-labeled tracer, using the exact procedures as described above. At 1 h pi, the mice were euthanized by CO2 inhalation. Blood was withdrawn by a cardiac puncture, and the organs/tissues of interest were collected, weighed and counted using a Perkin Elmer (Waltham, MA, USA) Wizard2 2480 automatic gamma counter. The uptake values in percent of injected dose per gram of tissues (%ID/g) for the different tracers were calculated.
as §2

Details of data set [4]: method as in PMID 35631416. The following applies: patients, after administrating 740 MBq; cited from earlier work.
Data set [5] concerns HEK-mFAP murine tumor model. Also noted: method as in doi:10.1158/1538-7445.AM2022-3303. The settings on record: single dose; cited from earlier work.
The mark [6] stands for this setting: HEK293T:hFAP tumor-bearing male NRG mice, unblocked.
Where [7] appears, read: HEK293T:hFAP tumor-bearing mice.
[8] abbreviates: HEK293T:hFAP tumor-bearing mice, blocked: co-injected with FAPI-04 (0.5 mg/mouse).

One may read the IC50 as the point on the concentration scale where inhibition reaches its midpoint. In the case of `N#CC1CCCN1C(=O)CNC(=O)c1ccnc2ccccc12` (stereo not drawn) [N-(4-quinolinoyl)-Gly-(2-cyanopyrrolidine)], the IC50 in the data set with FAP was […]. Besides, in the data set on DPPs, the “selectivity index (SI) over DPPs” value was […]. Also, in the data set on PREP, the “selectivity index (SI) over PREP” value was […].
Regarding `O=C([O-])CN1CCN(CC(=O)[O-])CCN(CC(=O)N2CCN(CCCOc3ccc4nccc(C(=O)NCC(=O)N5CCCC5B(O)O)c4c3)CC2)CCN(CC(=O)[O-])CC1.[68Ga+3]` (stereo not drawn) [[^68Ga]Ga-SB02055], in data set [1], the “fraction of tracer remaining intact in plasma” value is “no intact”; the “fraction of tracer remaining intact in urine” value is 93.5 ± 0.91% and > 93%. The “plasma fraction of unidentified highly hydrophilic 68Ga-labeled species” value in data set [1] (mouse plasma) is reported as above 99%. In addition, the “tumor on PET/CT image” value in data set [2] was “negligible”. For the same compound, in data set [3] (setting [6]), the “Adrenal Glands uptake” value is recorded as 1.17 ± 1.13 %ID/g, the Blood uptake was found to be 3.13 ± 1.25 %ID/g, the Bone uptake is 1.14 ± 0.37 %ID/g and the Brain uptake is reported as 0.05 ± 0.02 %ID/g. In data set [3] (setting [6]), the Fat uptake was 0.16 ± 0.05 %ID/g, the Heart uptake was 1.23 ± 0.48 %ID/g, the Kidneys uptake is listed as 1.74 ± 0.95 %ID/g and the “Large Intestines uptake” value is recorded as 0.56 ± 0.24 %ID/g. In data set [3] (setting [6]), this compound came in with a Liver uptake of 0.94 ± 0.27 %ID/g, a Lungs uptake of 1.20 ± 0.35 %ID/g, a Muscle uptake of 0.63 ± 0.20 %ID/g and a Pancreas uptake of 2.07 ± 0.83 %ID/g. Further, in data set [3] (setting [6]), the “Small Intestine uptake” value is on record as 0.80 ± 0.29 %ID/g, the Spleen uptake turned out to be 0.85 ± 0.27 %ID/g, the Stomach uptake is on record as 0.53 ± 0.36 %ID/g and the Testes uptake was 0.26 ± 0.10 %ID/g. Also, in data set [3] (setting [6]), the Thyroid uptake worked out at 1.49 ± 0.47 %ID/g, the Tumor uptake amounted to 1.08 ± 0.37 %ID/g, the Tumor/Blood uptake ratio is 0.35 ± 0.03 and the Tumor/Bone uptake ratio came out at 0.95 ± 0.06. Also, in data set [3] (setting [6]), the Tumor/Kidney uptake ratio is reported as 0.67 ± 0.15 and the Tumor/Muscle uptake ratio was determined as 1.72 ± 0.19. For the same compound, the “fold lower tumor uptake than [68Ga]Ga-PNT6555” value in data set [3] (setting [7]) was ~ 6 fold.
For the compound “[^99mTc]Tc-HYNIC-D-Ala-boroPro [[^99mTc]Tc-iFAP]”, in data set [4], the effective dose is 2.3 ± 0.4 mSv and the “mean radiation equivalent dose for the kidney” value is listed as 5.2 ± 0.8 mSv.
On to `CC(NC(=O)c1ccc(CNC(=O)CN2CCN(CC(=O)[O-])CCN(CC(=O)[O-])CCN(CC(=O)[O-])CC2)cc1)C(=O)N1CCCC1B(O)O.[68Ga+3]` (stereo not drawn) [[^68Ga]Ga-PNT6555, reference compound], for which, in data set [3] (setting [6]), the “Adrenal Glands uptake” value was 0.56 ± 0.89 %ID/g, the Blood uptake stood at 0.60 ± 0.04 %ID/g, the Bone uptake came to 0.45 ± 0.12 %ID/g and the Brain uptake is given as 0.02 ± 0.00 %ID/g. Besides, in data set [3] (setting [6]), the Fat uptake is 0.06 ± 0.02 %ID/g, the Heart uptake is listed as 0.17 ± 0.01 %ID/g, the Kidneys uptake came out at 2.29 ± 0.43 %ID/g and the “Large Intestines uptake” value was determined as 0.11 ± 0.03 %ID/g. In addition, in data set [3] (setting [6]), the Liver uptake worked out at 1.49 ± 0.11 %ID/g, the Lungs uptake stood at 0.42 ± 0.04 %ID/g, the Muscle uptake amounted to 0.12 ± 0.02 %ID/g and the Pancreas uptake was 0.13 ± 0.02 %ID/g. In data set [3] (setting [6]), the “Small Intestine uptake” value was determined as 0.64 ± 0.10 %ID/g, the Spleen uptake is listed as 0.21 ± 0.08 %ID/g, the Stomach uptake is 0.11 ± 0.05 %ID/g and the Testes uptake came to 0.16 ± 0.03 %ID/g. For the same compound, in data set [3] (setting [6]), the Thyroid uptake was determined as 0.26 ± 0.02 %ID/g, the Tumor uptake amounted to 6.38 ± 0.45 %ID/g, the Tumor/Blood uptake ratio was found to be 10.7 ± 1.29 and the Tumor/Bone uptake ratio turned out to be 14.9 ± 3.34. In data set [3] (setting [6]), the Tumor/Kidney uptake ratio was determined as 2.87 ± 0.59 and the Tumor/Muscle uptake ratio stood at 52.6 ± 5.86.
Consider `CC(NC(=O)c1ccnc2ccc(OCCCN3CCN(C(=O)CN4CCN(CC(=O)[O-])CCN(CC(=O)[O-])CCN(CC(=O)[O-])CC4)CC3)cc12)C(=O)N1CCCC1B(O)O.[68Ga+3]` (stereo not drawn) [[^68Ga]Ga-SB04028], for which, in data set [1], the “fraction of tracer remaining intact in plasma” value was 46.6 ± 0.21%; the “fraction of tracer remaining intact in urine” value is 53.6 ± 7.11% and > 54%. Further, the “tumor uptake on PET/CT image upon co-injection with FAPI-04” value in data set [2] (FAPI-04 0.5 mg/mouse) is listed as “reduced the tumor uptake to the background level”. Besides, in data set [2], the “tumor on PET/CT image” value was “clear visualization”. Also, in data set [3] (FAPI-04 0.5 mg/mouse, HEK293T:hFAP tumor-bearing mice), the “reduction of average tumor uptake upon co-injection with FAPI-04” value is listed as ~ 97%. In data set [3] (setting [6]), the “Adrenal Glands uptake” value was determined as 0.14 ± 0.10 %ID/g, the Blood uptake worked out at 0.97 ± 0.03 %ID/g, the Bone uptake worked out at 0.24 ± 0.09 %ID/g and the Brain uptake amounted to 0.02 ± 0.00 %ID/g. For the same compound, in data set [3] (setting [6]), the Fat uptake was 0.07 ± 0.01 %ID/g, the Heart uptake stood at 0.24 ± 0.02 %ID/g, the Kidneys uptake was determined as 2.10 ± 0.33 %ID/g and the “Large Intestines uptake” value is given as 0.13 ± 0.03 %ID/g. In data set [3] (setting [6]), this compound gave a Liver uptake of 0.32 ± 0.03 %ID/g, a Lungs uptake of 0.59 ± 0.04 %ID/g, a Muscle uptake of 0.13 ± 0.01 %ID/g and a Pancreas uptake of 0.18 ± 0.02 %ID/g. In data set [3] (setting [6]), the “Small Intestine uptake” value worked out at 0.34 ± 0.02 %ID/g, the Spleen uptake was 0.25 ± 0.04 %ID/g, the Stomach uptake was 0.06 ± 0.01 %ID/g and the Testes uptake is listed as 0.18 ± 0.02 %ID/g. Also, in data set [3] (setting [6]), the Thyroid uptake is listed as 0.35 ± 0.00 %ID/g, the Tumor uptake is 10.1 ± 0.42 %ID/g, the Tumor/Blood uptake ratio is on record as 10.4 ± 0.70 and the Tumor/Bone uptake ratio was 48.1 ± 20.5. In data set [3] (setting [6]), the Tumor/Kidney uptake ratio was determined as 4.89 ± 0.72 and the Tumor/Muscle uptake ratio is 79.9 ± 7.50. Besides, the “fold higher tumor uptake compared to [68Ga]Ga-PNT6555” value in data set [3] (setting [7]) is ~ 1.5 fold and > 1.5 fold. Further, in data set [3] (setting [8]), the “Adrenal Glands uptake” value came out at 0.09 ± 0.06 %ID/g, the Blood uptake amounted to 0.49 ± 0.13 %ID/g, the Bone uptake came to 0.01 ± 0.00 %ID/g and the Brain uptake was determined as 0.02 ± 0.00 %ID/g. For the same compound, in data set [3] (setting [8]), the Fat uptake is listed as 0.14 ± 0.13 %ID/g, the Heart uptake came to 0.11 ± 0.00 %ID/g, the Kidneys uptake came out at 2.53 ± 0.57 %ID/g and the “Large Intestines uptake” value stood at 0.08 ± 0.03 %ID/g. In addition, in data set [3] (setting [8]), the Liver uptake came out at 0.30 ± 0.05 %ID/g, the Lungs uptake came out at 0.78 ± 0.37 %ID/g, the Muscle uptake is recorded as 0.66 ± 0.12 %ID/g and the Pancreas uptake turned out to be 0.09 ± 0.02 %ID/g. Also, in data set [3] (setting [8]), the “Small Intestine uptake” value is 0.34 ± 0.04 %ID/g, the Spleen uptake worked out at 0.18 ± 0.02 %ID/g, the Stomach uptake is on record as 0.03 ± 0.00 %ID/g and the Testes uptake came to 0.12 ± 0.01 %ID/g. In data set [3] (setting [8]), the Thyroid uptake worked out at 0.14 ± 0.01 %ID/g, the Tumor uptake was 0.30 ± 0.04 %ID/g, the Tumor/Blood uptake ratio amounted to 0.63 ± 0.09 and the Tumor/Bone uptake ratio is reported as 33.9 ± 13.3. In addition, in data set [3] (setting [8]), the Tumor/Kidney uptake ratio was found to be 0.12 ± 0.03 and the Tumor/Muscle uptake ratio is reported as 0.46 ± 0.06.
With `CC(NC(=O)c1ccc(CNC(=O)CN2CCN(CC(=O)[O-])CCN(CC(=O)[O-])CCN(CC(=O)[O-])CC2)cc1)C(=O)N1CCCC1B(O)O.[225Ac+3]` (stereo not drawn) [[^225Ac]Ac-PNT6555], in data set [5], the anti-tumor efficacy entry is “dose-dependent anti-tumor efficacy”.

(Values after publication PMC10303363, “Synthesis and Preclinical Evaluation of Novel ^68Ga-Labeled (R)-Pyrrolidin-2-yl-boronic Acid-Based PET Tracers for Fibroblast Activation Protein-Targeted Cancer Imaging” (Pharmaceuticals, 2023).)
